# Patent publication US20220133688A1, “MACROCYCLIC LACTONE ANTHELMINTICS AGAINST NEMATODES” (Bayer Animal Health GmbH, priority 2019, published 2022)
# Where “and” joins values, the source holds several entries; their conditions need not be identical. Equal entries are not always repeated. Where two headings read alike, the source gives them in different places.
# Key:
# [1] = test system: D. immitis Mf, Georgia-2 isolate; experiment: Cell attachment assay (canine PMN or PBMC attachment to Mf), Georgia-2 isolate; format: cell-based, Dirofilaria immitis
# [2] = test system: D. immitis Mf, Missouri isolate; experiment: Cell attachment assay (canine PMN or PBMC attachment to Mf), Missouri isolate; format: cell-based, Dirofilaria immitis
SMILES,Percentage (±SEM) of Mf with cells attached [1],lowest drug concentration at which a statistically significant increase (p = <0.05) in cell attachment was observed compared to the no-drug control [1] [nM],Percentage (±SEM) of Mf with cells attached [2],lowest drug concentration at which a statistically significant increase (p = <0.05) in cell attachment was observed compared to the no-drug control [2] [nM],"Percentage (±SEM) of Mf with cells attached ([1]; PBMC, 1 μM drug, Georgia-2 Mf) [%]","lowest drug concentration at which a statistically significant increase (p = <0.05) in cell attachment was observed compared to the no-drug control ([1]; PBMC, 40 h, Georgia-2 Mf, 2-way ANOVA) [nM]","Percentage (±SEM) of Mf with cells attached ([1]; PMN, 1 μM drug, Georgia-2 Mf) [%]","lowest drug concentration at which a statistically significant increase (p = <0.05) in cell attachment was observed compared to the no-drug control ([1]; PMN, 24 h, Georgia-2 Mf, 2-way ANOVA) [nM]","Percentage (±SEM) of Mf with cells attached ([2]; PBMC, 1 μM drug, Missouri Mf) [%]","lowest drug concentration at which a statistically significant increase (p = <0.05) in cell attachment was observed compared to the no-drug control ([2]; PBMC, 40 h, Missouri Mf, 2-way ANOVA) [nM]","Percentage (±SEM) of Mf with cells attached ([2]; PMN, 1 μM drug, Missouri Mf) [%]","lowest drug concentration at which a statistically significant increase (p = <0.05) in cell attachment was observed compared to the no-drug control ([2]; PMN, 24 h, Missouri Mf, 2-way ANOVA) [nM]"
"CC[C@H](C)[C@H]1O[C@]2(CC[C@@H]1C)C[C@@H]1C[C@@H](C/C=C(\C)[C@@H](O[C@H]3C[C@H](OC)[C@@H](O[C@H]4C[C@H](OC)[C@@H](O)[C@H](C)O4)[C@H](C)O3)[C@@H](C)/C=C/C=C3\CO[C@@H]4[C@H](O)C(C)=C[C@@H](C(=O)O1)[C@]34O)O2 [IVM, ivermectin]",41 ± 6% and 71 ± 5%,1,48 ± 6% and 60 ± 3%,3,–,–,–,–,–,–,–,–
"CO/N=C1\C[C@]2(C[C@@H]3C[C@@H](C/C=C(\C)C[C@@H](C)/C=C/C=C4\CO[C@@H]5[C@H](O)C(C)=C[C@@H](C(=O)O3)[C@]45O)O2)O[C@H](/C(C)=C/C(C)C)[C@H]1C [MOX, moxidectin]",–,–,–,–,63 ± 5,1,54 ± 6,3,63 ± 5,1,65 ± 5,3
